From the supplement of paper PMC13380429
± gives the standard deviation of the averaged measurements.

Key:
Settings in all cases: 72 h
HepG2 [1] = assay: drug sensitivity score (DSS) for viability; higher = more toxic; extreme values may be limits of the assay
Caco-2 [2] = assay: as above
Vero E6 [3] = assay: as above
Calu-3 [4] = assay: as above
U2OS [5] = assay: as above
HepG2 [6] = assay: cell viability relative to DMSO; higher = less toxic
Caco-2 [7] = assay: as above
Vero E6 [8] = assay: as above
Calu-3 [9] = assay: as above
U2OS [10] = assay: as above
HepG2 [11] = assay: relative viability EC50 (midpoint between 100% and the lowest measured viability); higher = less toxic
Caco-2 [12] = assay: as above
Vero E6 [13] = assay: as above
Calu-3 [14] = assay: as above
U2OS [15] = assay: as above

SMILES	drug sensitivity score (HepG2 [1])	drug sensitivity score (Caco-2 [2])	drug sensitivity score (Vero E6 [3])	drug sensitivity score (Calu-3 [4])	drug sensitivity score (U2OS [5])	cell viability (HepG2 [6]; 1 nM)	cell viability (HepG2 [6]; 10 nM)	cell viability (HepG2 [6]; 100 nM)	cell viability (HepG2 [6]; 1000 nM)	cell viability (HepG2 [6]; 10000 nM)	cell viability (Caco-2 [7]; 1 nM)	cell viability (Caco-2 [7]; 10 nM)	cell viability (Caco-2 [7]; 100 nM)	cell viability (Caco-2 [7]; 1000 nM)	cell viability (Caco-2 [7]; 10000 nM)	cell viability (Vero E6 [8]; 1 nM)	cell viability (Vero E6 [8]; 10 nM)	cell viability (Vero E6 [8]; 100 nM)	cell viability (Vero E6 [8]; 1000 nM)	cell viability (Vero E6 [8]; 10000 nM)	cell viability (Calu-3 [9]; 1 nM)	cell viability (Calu-3 [9]; 10 nM)	cell viability (Calu-3 [9]; 100 nM)	cell viability (Calu-3 [9]; 1000 nM)	cell viability (Calu-3 [9]; 10000 nM)	cell viability (U2OS [10]; 1 nM)	cell viability (U2OS [10]; 10 nM)	cell viability (U2OS [10]; 100 nM)	cell viability (U2OS [10]; 1000 nM)	cell viability (U2OS [10]; 10000 nM)	relative viability EC50 (HepG2 [11])	relative viability EC50 (Caco-2 [12])	relative viability EC50 (Vero E6 [13])	relative viability EC50 (Calu-3 [14])	relative viability EC50 (U2OS [15])
C[C@]12CC[C@@H](O)C[C@H]1CC[C@@H]1[C@@H]2CC[C@]2(C)C(=O)CC[C@@H]12 [3-alpha-hydroxy-5-beta-androstan-17-one]	0.233 ± 0.4	0.233 ± 0.4	0	0	0	101 ± 8.8%	96.6 ± 5.6%	102 ± 5.1%	104 ± 7.5%	87.4 ± 9.7%	97.8 ± 5%	104 ± 14%	97.6 ± 4.1%	98.8 ± 3.4%	92.9 ± 15%	99.8 ± 2.9%	101 ± 1.3%	103 ± 3.8%	103 ± 2.3%	94.3 ± 1.5%	99.6 ± 4.8%	97.4 ± 4%	96.1 ± 3.2%	97.8 ± 6.8%	101 ± 3.2%	102 ± 2.1%	97.8 ± 1.6%	102 ± 2.6%	98.6 ± 2.8%	99.9 ± 3.2%	> 10 µM	> 10 µM	> 10 µM	> 10 µM	> 10 µM
O=C(O)c1cc(O)c2c3nc4ccccc4oc-3cc(=O)c2n1 [pirenoxine]	0	1.9	0	0	0	103%	113%	89.5%	99.6%	92.6%	99.6%	103%	108%	83.6%	81.7%	105%	107%	96.6%	101%	95%	108%	109%	102%	106%	99.4%	106%	99.7%	102%	103%	103%	> 10 µM	> 10 µM	> 10 µM	> 10 µM	> 10 µM
COc1ccc(-c2cc(C(F)F)nn2-c2ccc(S(N)(=O)=O)cc2)cc1F [deracoxib]	1.5	0	0	0	0	96.4%	112%	90.5%	89.7%	86.5%	99.9%	93.5%	98.1%	98.6%	102%	97.3%	99.7%	94.2%	101%	98.8%	100%	93.8%	104%	93.3%	109%	91.3%	90.2%	93.7%	88.7%	107%	> 10 µM	> 10 µM	> 10 µM	> 10 µM	> 10 µM
NC1CCN(c2c(F)cc3c(=O)c(C(=O)O)cn(C4CC4)c3c2Cl)C1 (stereo not given) [clinafloxacin]	0	0	0	0	0	115%	97%	108%	97.3%	109%	98.7%	100%	89.7%	106%	108%	102%	97%	95%	98.7%	104%	95.5%	94.4%	94.7%	97.6%	99.5%	95%	102%	97.5%	102%	102%	> 10 µM	> 10 µM	> 10 µM	> 10 µM	> 10 µM
C[C@H](NC[C@H](O)CP(=O)(O)CC1CCCCC1)c1ccc(Cl)c(Cl)c1	0	0	0	0	0	103%	97.6%	99.3%	98.6%	96.8%	96.1%	92.1%	93.9%	99.5%	91.4%	107%	101%	104%	98.7%	104%	76.5%	104%	95.2%	102%	91.7%	94.6%	102%	94.2%	101%	99.8%	> 10 µM	> 10 µM	> 10 µM	> 10 µM	> 10 µM
CO/N=C1\CN(c2nc3c(cc2F)c(=O)c(C(=O)O)cn3C2CC2)CC1CN (stereo not given) [gemifloxacin]	0.1	0	0	0	0	105%	108%	105%	100%	86.8%	92.2%	114%	105%	96.9%	95.9%	103%	102%	102%	102%	95.7%	99.6%	98.5%	98.4%	98.5%	105%	97%	102%	97.3%	100%	94.3%	> 10 µM	> 10 µM	> 10 µM	> 10 µM	> 10 µM
CC[C@]12C=CCN3CC[C@@]4(c5cc([C@@]6(C(=O)OC)C[C@@H]7C[C@@H](C(C)(F)F)CN(Cc8c6[nH]c6ccccc86)C7)c(OC)cc5N(C)[C@H]4[C@@](O)(C(=O)OC)[C@@H]1OC(C)=O)[C@@H]32 [Vinflunine Ditartrate]	17	10.9	8.8	6.8	11.3	107%	95.1%	61.2%	32.8%	34.3%	88.1%	104%	77.4%	55.2%	41.2%	102%	99.5%	103%	64.1%	24.3%	108%	101%	90.2%	69.3%	45.9%	101%	98.1%	87.5%	48.6%	23.1%	0.0789 µM	0.213 µM	1.04 µM	0.655 µM	0.493 µM
C[C@H](Cn1cnc2c(N)ncnc21)OCP(=O)(O)O [tenofovir]	0	0	0	0	0	93.9%	94.6%	105%	107%	115%	97.8%	89.2%	96.9%	99.6%	107%	94.4%	94.4%	97.2%	94.5%	107%	98.4%	101%	94.7%	93.3%	93.8%	101%	98.6%	102%	99.8%	103%	> 10 µM	> 10 µM	> 10 µM	> 10 µM	> 10 µM
COc1cc(-c2ccc(=O)[nH]n2)ccc1OC(F)F [zardaverine]	0	0	0	0.3	0	93.8%	110%	95.7%	106%	99.7%	87.1%	90%	96.9%	96.3%	104%	95.5%	101%	94.5%	93%	92.6%	108%	95.9%	89.5%	92.4%	89.4%	97.8%	95.8%	103%	98%	99.2%	> 10 µM	> 10 µM	> 10 µM	> 10 µM	> 10 µM
C[C@H]1CNCCCN1S(=O)(=O)c1cccc2cncc(F)c12 [ripasudil]	0.3	0	0.2	0	0	111%	101%	101%	92.1%	88%	92%	90.4%	87.5%	99.2%	101%	109%	103%	105%	91.6%	88.7%	88.6%	98.1%	102%	138%	143%	98.4%	100%	99.4%	99.8%	92.9%	> 10 µM	> 10 µM	> 10 µM	> 10 µM	> 10 µM
COc1ccc(C2CC(c3ccccc3)=NN2c2ccc(S(N)(=O)=O)cc2)cc1 (stereo not given) [ML141]	0	0.8	0	0	0	106%	102%	102%	104%	94.8%	94.9%	95.2%	97.6%	97.8%	80.7%	112%	103%	109%	95.9%	102%	85.8%	105%	105%	110%	104%	102%	110%	93.3%	108%	94%	> 10 µM	> 10 µM	> 10 µM	> 10 µM	> 10 µM
O=Cc1cn(Cc2ccc(Cl)cc2)c2ccccc12 [oncrasin-1]	12.5	0	0	0	0	101%	110%	104%	40.3%	1.2%	92.2%	90.8%	97.2%	101%	98.6%	90.4%	102%	94.1%	95.9%	103%	94.8%	100%	96.2%	99.8%	106%	97.2%	96.8%	102%	100%	101%	0.847 µM	> 10 µM	> 10 µM	> 10 µM	> 10 µM
Cc1[nH]cnc1CN1CCc2c(c3ccccc3n2C)C1=O [alosetron]	3.7	0	0	0	0	111%	93.7%	83.9%	89.1%	94.4%	101%	98.7%	95.6%	104%	109%	99.3%	94.5%	93.1%	96.5%	97%	102%	93.5%	102%	91.7%	106%	98.2%	95.6%	104%	96.9%	99.5%	> 10 µM	> 10 µM	> 10 µM	> 10 µM	> 10 µM
CCOC(=O)/C=C(C)/C=C/C=C(C)/C=C/c1c(C)cc(OC)c(C)c1C [etretinate]	0	0	0	0	0	94.2%	99.4%	103%	102%	102%	100%	107%	92.2%	111%	95.3%	97.9%	96.6%	93%	98.5%	108%	101%	101%	97.5%	106%	109%	96%	101%	98.1%	100%	99.5%	> 10 µM	> 10 µM	> 10 µM	> 10 µM	> 10 µM
